From patent publication US8815210B2, “Diagnostic composition comprising plasma cations having superior safety profile” (GE Healthcare AS, priority 2009, dated 2014)
“Also recorded” adds a separate entry of the source. Like-named read-outs stand apart in the source and are kept apart here.

Experiments:
[1] = test system: normal pigs; assay: Haemodynamic effects after LAD injection in normal pigs without balloon occlusion (Example 2b); type: in vivo, pig; conditions: 25 ml (0.4 ml/sec) into LAD, 9 injections in 3 pigs
Excerpt: FIG. 5 depicts the effect of Compound I (with and without added Ca) and Visipaque on LVSP 45 to 70 seconds from the start of injection to the LAD of normal pigs normalised to Ringer Lacate (LR) injection.
The haemodynamic effects of compositions of Compound I with and without added CaCl2 were compared to Visipaque and Iopamidol following selective administration to the LAD in normal pigs without balloon occlusion. The effects of each contrast media were normalised to any effects seen with an equivalent injection of Ringer Lactate solution, which acted as a volume and electrolyte—“ratio” control. There were a total of 12 pigs in this study, and each pig received a single CM injected 3 times at volumes of 10 ml (4 ml/sec), 20 ml (1 ml/sec) and 25 ml (0.4 ml/sec) (total of 9 CM injections in each pig). Each CM was either preceded or followed by a control injection of Ringer Lactate, and the order of each injection (volume) was randomised in each pig.

[2] = Partition coefficient between octanol and water; type: physicochemical; conditions: n-octanol/water
Description: As a measure of the hydrophilicity of Compound I, the partition coefficient between octanol and water was determined. Water (5 ml) containing the test substance (0.3 mg/ml) was shaken with 15 ml n-octanol until equilibrium had been obtained. The aqueous phase was separated by centrifugation and analyzed by HPLC (HP1100 equipped with a Discovery C18 column, 100×2.1 mm) using UV detection at 244 nm and a flow of 0.3 ml/min. Isocratic HPLC conditions were used, 8% acetonitrile in water (v/v). The octanol phase (12.5 ml) was extracted with water (0.75 ml) until equilibrium had been obtained and the phases were separated by centrifugation. The aqueous phase was analyzed by HPLC using the conditions detailed above. Both octanol and water were pre-saturated with water and octanol, respectively, before the partition coefficient experiments. […] As a comparison, the corresponding logP of iodixanol was determined to −4.02. The reported literature value is −4.05. The increased hydrophilicity of Compound I compared to iodixanol is confirmed by its HPLC behavior.

[3] = Osmolality, vapour pressure osmometer; type: physicochemical; conditions: 320 mgI/ml
Description: The osmolality of Compound I was determined at four different concentrations, 204, 254, 310 and 324 mgI/ml. The osmolality of Compound I at 320 mgI/ml is 136 mOsm/kg.
The osmolality of Compound I was determined at four different concentrations, 204, 254, 310 and 324 mgI/ml. A Vapro 5520 vapour pressure osmometer from Vapro Inc. was used.
The osmolality of Compound I at 320 mgI/ml is lower than that of iodixanol, 136 mOsm/kg vs 210 mOsm/kg at 320 mgI/ml.

[4] = test system: CD25^+-depleted peripheral blood mononuclear cells; assay: In vitro T cell proliferation model; type: cell-based; conditions: 2 and 5 mg I/mL
Description: Generally, iodinated contrast media may cause late hypersensitivity reactions in susceptible patients from 1 hour to several days after exposure. These reactions are mainly non-serious skin eruptions such as macular, maculopapular and urticaria-like eruptions. Contrast media-induced delayed adverse reactions (DARs) such as skin eruptions appear to be caused by contrast media-reactive T cells that, upon recognizing the contrast media, proliferate and subsequently orchestrate an inflammatory reaction in the skin. The applicant has evaluated an in vitro T cell proliferation model designed to predict the relative frequency with which contrast media, such as Compound I, will cause late skin reactions in patients post-intravascular administration. Two contrast media, iodixanol and iohexol, with known rates of delayed skin reactions, and the new contrast medium, Compound I, was screened (2 and 5 mg I/mL) for in vitro T cell proliferation in CD25^+-depleted peripheral blood mononuclear cells from 100 donors representing world population HLA-DR frequencies. Positive T cell responses were evaluated according to published protocols and stimulation index values (positive response≧1.9). In vitro toxicity was tested by measuring cell viability of the first 10 donor samples incubated with test contrast media (5 mg I/mL). The results were that all major HLA-DR allotypes were represented with a frequency equivalent to the world population. No contrast media tested appeared to have a meaningful effect on cell viability. […] For iodixanol and iohexol, T cell proliferation responses for most donors occurred on days 7 and 8; statistical significance favored a reduced proliferation response to Compound I on day 8. In conclusions the model successfully established the relative frequency with which contrast media caused in vitro T cell activation. The results correlated with reported frequency of late skin reactions with two marketed contrast media and identified a lower frequency for Compound I.

[5] = test system: Sca:SD rats; conditions: rat, in vivo
Description: Young adult male Sca:SD rats (Scanbur, Sweden), weighing 200±20 g, were injected intravenously at a rate of 1.2 ml/min with either Compound I (340 mgI/mL, 286 mosmol/kg), iodixanol (321 mgI/mL, 284 mosmol/kg), osmotic control mannitol (283 mosmol/kg), or saline (290 mosmol/kg), administered as 2 separate doses 4 hours apart. For the interim kill animals (day 2 post-treatment), Compound I and iodixanol were dosed at 8, 10 and 12.8 gI/kg, corresponding to total dose volumes of 23.7, 29.7 and 38.0 ml/kg, and 25, 31.3 and 40 ml/kg, respectively, whereas for mannitol and saline, the dose volume was 40 ml/kg. For the 7 day terminal kill animals, there were 4 dose groups; Compound I and iodixanol (12.8 gI/kg), and saline and mannitol (40 mL/kg). In all cases, each group included 8 animals.
The following evaluations were made during the study; clinical signs, body weights and blood for haematology and clinical chemistry on days 0, 2 and 7, and gross observations, organ weight and histomorphological examination of tissues from the animals killed by excess intravenous thiopental injection on days 2 or 7. The day of dosing was defined as Day 0. Clinical biochemistry parameters (Na, K, Cl, PO4, Ca, AST, ALT, ALP, cholesterol, creatinine, CK, GGT, TG (triglyceride), total bilirubin, total protein, urea, albumin, LDH and GLDH were measured on a Beckman Synchron CX5 at 37° C. Haematology parameters (WBC, differential WBC, RBC, WBC/RBC ratio, Hgb, PLT, HCT, MCH, MCHC, MCV, MPV and RDW) were analyzed with an Abbott Cell-Dyn 3500 CS automated haematology analyzer. Kidneys from saline control and the 12.8 gI/kg Compound I and iodixanol groups were immerse fixed in 10% neutral buffered formalin, processed into paraffin wax, sectioned at a nominal thickness of 5 μm, stained with haematoxylin and eosin and examined by light microscopy.
The data were analysed by parametric one-way ANOVA, followed by Dunnett's post procedure test, using the 2 days and 7 days saline groups for comparison with the 2 days and 7 days iodixanol and Compound I groups. The statistical analysis was applied on day −1 (baseline), day 2 and day 7.

[6] = test system: human serum albumin (HSA); assay: Binding to human serum albumin, equilibrium dialysis; type: in vitro ADME; conditions: 25 hours, citrated human plasma
Description: The binding of Compound I to human serum albumin (HSA) was determined using an equilibrium dialysis method. The binding of Compound I to human serum albumin was determined to be very low, 3.1±1.3%, confirming the negligible interaction of the substance with endogenous proteins.
The binding of Compound I to human serum albumin (HSA) was determined using an equilibrium dialysis method. A stock solution of Compound I (5.0 mg/ml in phosphate buffered saline (PBS)) was mixed with citrate:human plasma in a ratio of 1:9. Equilibration was carried out in a Diachem Dianorm Dialyser against an aqueous phosphate buffered saline using a Diachem 10.17 MW cutoff 10000 membrane and was carried out for 25 hours. Analysis of the solutions was performed using an ICP-AES instrument. In addition, spiked PBS solutions were also equilibrated against citrated human plasma solutions to ensure that the equilibrium had been obtained. The binding of Compound I to human serum albumin was determined to be very low, 3.1±1.3%, confirming the negligible interaction of the substance with endogenous proteins. As a reference, the binding of iodixanol to HSA was determined to 0.4±0.9%.

[7] = octanol/water; cited from earlier work

Row | SMILES | induction of ventricular fibrillation (VF) [1] | logP [2] | osmolality [3] [mOsm/kg] | days on which T cell proliferation responses occurred for most donors [4] | Glomerulus: Bowman's Space Proteinaceous Material, Right Kidney ([5]; male, Sca:SD, 2 day) | duration of clinical signs ([5]; male, Sca:SD, iv) [h] | onset of clinical signs after the first administration ([5]; male, Sca:SD, iv) [min] | Glomerulus: Bowman's Space Proteinaceous Material, Right Kidney [5] | adverse clinical signs ([5]; iv) | binding to human serum albumin (HSA) [6] [%] | logP, reported literature value [7]
1 | C[C@H](O)C(=O)Nc1c(I)c(C(=O)NC(CO)CO)c(I)c(C(=O)NC(CO)CO)c1I [Iopamidol, reference compound] | VF was observed in each case; also recorded: induced VF on every occasion | – | – | – | – | – | – | – | – | – | –
2 | CC(=O)N(CC(O)CN(C(C)=O)c1c(I)c(C(=O)NCC(O)CO)c(I)c(C(=O)NCC(O)CO)c1I)c1c(I)c(C(=O)NCC(O)CO)c(I)c(C(=O)NCC(O)CO)c1I (stereo not drawn) [iodixanol, reference compound] | – | -4.02 | 210 | days 7 and 8 | P, P, P, 0 | 2 to 3 | 10 to 20 | P, P, P, P, | mild to moderate depression and uncoordinated movements and weakness/inactivity | 0.4±0.9 | −4.05
3 | CC(=O)N(CC(O)CO)c1c(I)c(C(=O)NCC(O)CO)c(I)c(C(=O)NCC(O)CO)c1I (stereo not drawn) [iohexol, reference compound] | – | – | – | days 7 and 8 | – | – | – | – | – | – | –
